What was measured:
[1] = Inhibition of chymotrypsin like proteolytic activity of rabbit 26S proteasome; set-up: species or system Oryctolagus cuniculus
[2] = Inhibition of trypsin like proteolytic activity of rabbit 26S proteasome; set-up: species or system Oryctolagus cuniculus
[3] = Inhibition of PGPH activity of rabbit 26S proteasome; set-up: species or system Oryctolagus cuniculus
[4] = Inhibition of 26S proteasome-mediated chymotrypsin like proteolytic activity in human MCF7 cells; assay type: cell-based
[5] = Inhibition of calpain
[6] = Dissociation constant, pKa of the compound; assay type: physicochemical

| IC50 [1] | IC50 [2] | IC50 [3] | IC50 [4] | IC50 [5] | pKa [6] | Compound |
| --- | --- | --- | --- | --- | --- | --- |
| 13.7 µM | 24.3 µM | 30 µM | – | – | – | COc1cc(NC2=C(Cl)C(=O)c3ccccc3C2=O)ccc1S(=O)(=O)Nc1ccccc1C |
| 1 µM | 4.5 µM | 4.5 µM | 6 µM | > 30 µM | – | O=C1C(Cl)=C(Nc2ccc(S(=O)(=O)Nc3ccccn3)cc2)C(=O)c2ccccc21 |
| 3.3 µM | 8.15 µM | 14.3 µM | – | – | < 7.91 | O=C1C(Cl)=C(Nc2ccc(S(=O)(=O)Nc3nccs3)cc2)C(=O)c2ccccc21 |
| 3.9 µM | 9.25 µM | 21.2 µM | – | – | < 7.91 | Cc1noc(NS(=O)(=O)c2ccc(NC3=C(Cl)C(=O)c4ccccc4C3=O)cc2)c1C |
| 6.4 µM | 10.7 µM | 13.4 µM | – | – | < 7.91 | Cc1nnc(NS(=O)(=O)c2ccc(NC3=C(Cl)C(=O)c4ccccc4C3=O)cc2)s1 |
| 11.2 µM | 13.2 µM | 16.7 µM | – | – | < 7.91 | Cc1cc(NS(=O)(=O)c2ccc(NC3=C(Cl)C(=O)c4ccccc4C3=O)cc2)no1 |
| 15.3 µM | 23.3 µM | 35 µM | – | – | – | COc1ccc(NS(=O)(=O)c2ccc(NC3=C(Cl)C(=O)c4ccccc4C3=O)cc2OC)cc1 |
| 16.3 µM | 20.7 µM | 25.6 µM | – | – | < 7.91 | O=C1C(Cl)=C(Nc2ccc(S(=O)(=O)Nc3ccnn3-c3ccccc3)cc2)C(=O)c2ccccc21 |
| 17 µM | 24.6 µM | 43.5 µM | – | – | – | COc1cccc(NS(=O)(=O)c2ccc(NC3=C(Cl)C(=O)c4ccccc4C3=O)cc2)c1 |
| 19 µM | 20.9 µM | 50.2 µM | – | – | < 7.91 | Cc1cc(C)nc(NS(=O)(=O)c2ccc(NC3=C(Cl)C(=O)c4ccccc4C3=O)cc2)n1 |
| 20.8 µM | 24.7 µM | 49.2 µM | – | – | – | COc1ccccc1NS(=O)(=O)c1ccc(NC2=C(Cl)C(=O)c3ccccc3C2=O)cc1 |
| 20.8 µM | 55 µM | > 100 µM | – | – | – | Cc1cccc(NS(=O)(=O)c2ccc(NC3=C(Cl)C(=O)c4ccccc4C3=O)cc2)c1 |
| – | 7 µM | 0.48 µM | – | – | – | CC(C)C[C@H](NC(=O)[C@H](Cc1ccccc1)NC(=O)c1cnccn1)B(O)O [BORTEZOMIB] |
